The melting point is the temperature of the solid-liquid transition.

Some results are limits rather than exact numbers.

Take `COC(=O)c1ccc(-c2nc(-c3ccc(Cl)cc3)no2)c([N+](=O)[O-])c1` [Example 60, methyl 4-[3-(4-chlorophenyl)-1,2,4-oxadiazol-5-yl]-3-nitrobenzoate]: the melting point was 189 to 190 °C.

Consider `Nc1cc(C(=O)O)ccc1-c1nc(-c2ccc(Cl)cc2)no1` [Example 64, 3-amino-4-[3-(4-chlorophenyl)-1,2,4-oxadiazol-5-yl]benzoic acid], for which the melting point is 294 to 296 °C (dec.).

The molecule `CCOC(=O)c1ccc(-c2ccc(-c3ccc(C(F)(F)F)cc3)s2)cc1` [Example 14, ethyl 4-[5-(4-trifluoromethylphenyl)-2-thienyl]benzoate] displayed a melting point of 203 to 204 °C.

Molecule `COC(=O)c1ccc(-c2nnc(-c3ccc(C(C)(C)C)cc3)o2)cc1` [Example 47, methyl 4-[5-(4-t-butylphenyl)-1,3,4-oxadiazol-2-yl]benzoate] gave a melting point of 210 to 211 °C.

`Nc1ccccc1-c1nnc(-c2ccc(C(=O)O)cc2)o1` [Example 55, 4-[5-(2-aminophenyl)-1,3,4-oxadiazol-2-yl]benzoic acid]: the melting point is more than 300 °C.

The molecule `COC(=O)c1ccc(-c2nc(-c3ccc(Cl)cc3)no2)c(N)c1` [Example 75, methyl 3-amino-4-[3-(4-chlorophenyl)-1,2,4-oxadiazol-5-yl]benzoate] showed a melting point of 227 to 228 °C.

The molecule `COC(=O)c1ccc(-c2cc(-c3ccc(Cl)cc3)on2)cc1` [Example 23, methyl 4-[5-(4-chlorophenyl)-3-isoxazolyl]benzoate] had a melting point of 225 to 226 °C.

`O=C(O)c1ccc(-c2cc(-c3ccc(Cl)cc3)no2)cc1` [Example 25, 4-[3-(4-chlorophenyl)-5-isoxazolyl]benzoic acid] returned a melting point of more than 300 °C.

Molecule `Cn1nc(-c2ccc(C(=O)O)cc2)nc1-c1ccccc1` [Example 39, 4-(1-methyl-5-phenyl-1H-1,2,4-triazol-3-yl)benzoic acid] displayed a melting point of 243 to 244 °C.

Molecule `COC(=O)c1ccc(-c2n[nH]c(-c3ccccc3)n2)cc1` [Example 36, methyl 4-(5-phenyl-1H-1,2,4-triazol-3-yl)benzoate] yielded a melting point of 243 to 244 °C.

As to `O=C(O)c1ccc(-c2n[nH]c(-c3ccccc3)n2)cc1` [Example 38, 4-(5-phenyl-1H-1,2,4-triazol-3-yl)benzoic acid], the melting point was more than 300 °C.

As to `O=C(O)c1ccc(-c2nc(-c3cccc(Oc4ccccc4)c3)no2)cc1` [Example 79, 4-[3-(3-phenoxyphenyl)-1,2,4-oxadiazol-5-yl]benzoic acid], the melting point was 292 to 293 °C.

Regarding `COC(=O)c1ccc(-c2cc(-c3ccccc3)no2)cc1` [Example 17, methyl 4-(3-phenyl-5-isoxazolyl)benzoate], the melting point was in the range of 205 to 206 °C.

Molecule `O=Cc1cccc(-c2nnc(-c3ccc(C(F)(F)F)cc3)o2)c1` [Example 80, 3-[5-(4-trifluoromethylphenyl)-1,3,4-oxadiazol-2-yl]benzaldehyde] had a melting point of 129 to 130 °C.

As to `COC(=O)c1ccc(-c2nc(-c3ccc(C(C)(C)C)cc3)no2)c(N)c1` [Example 74, methyl 3-amino-4-[3-(4-t-butylphenyl)-1,2,4-oxadiazol-5-yl]benzoate], the melting point lay in the range of 195 to 196 °C.

Molecule `CC(C)(C)c1ccc(-c2nnc(-c3ccc(C(=O)O)cc3)o2)cc1` [Example 50, 4-[5-(4-t-butylphenyl)-1,3,4-oxadiazol-2-yl]benzoic acid] had a melting point of 284 to 286 °C.

Consider `COC(=O)c1ccc(-c2nnc(-c3ccccc3)o2)cc1` [Example 45, methyl 4-(5-phenyl-1,3,4-oxadiazol-2-yl)benzoate], for which the melting point was 172 to 173 °C.

On to `COC(=O)c1ccc(-c2cc(-c3ccc(C(F)(F)F)cc3)on2)cc1` [Example 32, methyl 4-[5-(4-trifluoromethylphenyl)-3-isoxazolyl]benzoate], for which the melting point lay in the range of 183 to 184 °C.

Molecule `COC(=O)c1ccc(-c2nc(-c3ccc(C(F)(F)F)cc3)no2)cc1` [Example 40, methyl 4-[3-(4-trifluoromethylphenyl)-1,2,4-oxadiazol-5-yl]benzoate] had a melting point of 177 to 178 °C.

`COC(=O)c1ccc(-c2cc(-c3ccccc3)on2)cc1` [Example 21, methyl 4-(5-phenyl-3-isoxazolyl)benzoate] showed a melting point of 201 to 202 °C.

As for `COC(=O)c1ccc(-c2nc(-c3ccc(Oc4ccccc4)cc3)no2)cc1` [Example 41, methyl 4-[3-(4-phenoxyphenyl)-1,2,4-oxadiazol-5-yl]benzoate], the melting point fell in the range of 112 to 113 °C.

Consider `COC(=O)c1cccc(-c2cc(-c3ccc(Cl)cc3)on2)c1` [Example 22, methyl 3-[5-(4-chlorophenyl)-3-isoxazolyl)benzoate], for which the melting point lay in the range of 157 to 158 °C.

`COC(=O)c1ccc(-c2nnc(-c3ccc(C(C)(C)C)cc3)o2)c([N+](=O)[O-])c1` [Example 68, methyl 4-[5-(4-t-butylphenyl)-1,3,4-oxadiazol-2-yl]-3-nitrobenzoate] displayed a melting point of 142 to 143 °C.

`COC(=O)c1ccc(-c2nnc(-c3ccc(C(F)(F)F)cc3)o2)c([N+](=O)[O-])c1` [Example 67, methyl 3-nitro-4-[5-(4-trifluoromethylphenyl)-1,3,4-oxadiazol-2-yl]benzoate] yielded a melting point of 173 to 174 °C.

`O=C(O)c1ccccc1-c1ccc(-c2ccc(C(F)(F)F)cc2)o1` [Example 8, 2-[5-(4-trifluoromethylphenyl)-2-furyl]benzoic acid] registered a melting point of 182 to 183 °C.

Regarding `O=C(OCc1ccccc1)c1cc(-c2ccc(-c3ccc(C(F)(F)F)cc3)o2)ccc1OCc1ccccc1` [Example 11, benzyl 2-benzyloxy-5-[5-(4-trifluoromethylphenyl)-2-furyl]benzoate], the melting point lay in the range of 97 to 98 °C.

As to `CCOC(=O)c1cccc(-c2ccc(-c3ccc(C(F)(F)F)cc3)o2)c1` [Example 5, ethyl 3-[5-(4-trifluoromethylphenyl)-2-furyl]benzoate], the melting point is 93 to 94 °C.

On to `Nc1cc(C(=O)O)ccc1-c1nnc(-c2ccc(C(F)(F)F)cc2)o1` [Example 71, 3-amino-4-[5-(4-trifluoromethylphenyl)-1,3,4-oxadiazol-2-yl]benzoic acid], for which the melting point is more than 300 °C.

`O=C(O)c1ccc(-c2nc(-c3ccccc3)ccc2Cl)cc1` [Example 2, 4-(3-chloro-6-phenyl-2-pyridyl)benzoic acid] showed a melting point of 254 to 255 °C.

For the molecule `O=Cc1ccc(-c2nnc(-c3ccccc3[N+](=O)[O-])o2)cc1` [Example 81, 4-[5-(2-nitrophenyl)-1,3,4-oxadiazol-2-yl]benzaldehyde], the melting point lay in the range of 189 to 190 °C.

Molecule `CCOC(=O)c1ccc(-c2nnc(-c3ccccc3[N+](=O)[O-])o2)cc1` [Example 53, ethyl 4-[5-(2-nitrophenyl)-1,3,4-oxadiazol-2-yl]benzoate] had a melting point of 127 to 128 °C.

As to `O=C(O)c1ccc(-c2nnc(-c3ccc(C(F)(F)F)cc3)o2)cc1` [Example 49, 4-[5-(4-trifluoromethylphenyl)-1,3,4-oxadiazol-2-yl]benzoic acid], the melting point was more than 300 °C.

Take `O=C(O)c1cccc(-c2nnc(-c3ccc(C(F)(F)F)cc3)o2)c1` [Example 51, 3-[5-(4-trifluoromethylphenyl)-1,3,4-oxadiazol-2-yl]benzoic acid]: the melting point lay within 239 to 240 °C.

As for `O=Cc1ccc(-c2noc(-c3ccc(C(F)(F)F)cc3)n2)cc1` [Example 77, 4-[5-(4-trifluoromethylphenyl)-1,2,4-oxadiazol-3-yl]benzaldehyde], the melting point fell in the range of 145 to 146 °C.

In turn, `NC(=O)c1ccc(-c2ccc(-c3ccc(C(F)(F)F)cc3)o2)cc1` [Example 73, 4-[5-(4-trifluoromethylphenyl)-2-furyl]benzamide] came in with a melting point of 263 to 264 °C.

As to `O=C(O)c1ccc(-c2nc(-c3ccc(C(F)(F)F)cc3)no2)cc1` [Example 42, 4-[3-(4-trifluoromethylphenyl)-1,2,4-oxadiazol-5-yl]benzoic acid], the melting point lay within 293 to 294 °C.

For the molecule `O=C(O)c1ccc(-c2nc(-c3ccc(Oc4ccccc4)cc3)no2)cc1` [Example 43, 4-[3-(4-phenoxyphenyl)-1,2,4-oxadiazol-5-yl]benzoic acid], the melting point lay within 278 to 279 °C.

On to `O=C(O)c1ccc(-c2nnc(-c3ccccc3)o2)cc1` [Example 48, 4-[5-phenyl-1,3,4-oxadiazol-2-yl]benzoic acid], for which the melting point is more than 300 °C.

The molecule `CC(C)(C)c1ccc(-c2nnc(-c3ccc(C(=O)O)cc3[N+](=O)[O-])o2)cc1` [Example 70, 4-[5-(4-t-butylphenyl)-1,3,4-oxadiazol-2-yl]-3-nitrobenzoic acid] showed a melting point of 233 to 235 °C.

`COC(=O)c1ccc(-c2nc(-c3ccccc3)n(C)n2)cc1` [Example 37, methyl 4-(1-methyl-5-phenyl-1H-1,2,4-triazol-3-yl)benzoate] showed a melting point of 167 to 168 °C.

Turning to `O=C(O)c1ccc(-c2cc(-c3ccccc3)no2)cc1` [Example 24, 4-(3-phenyl-5-isoxazolyl)benzoic acid], the melting point is more than 300 °C.

In turn, `O=Cc1cccc(-c2cc(-c3ccc(C(F)(F)F)cc3)no2)c1` [Example 82, 3-[3-(4-trifluoromethylphenyl)-5-isoxazolyl]benzaldehyde] gave a melting point of 151 to 152 °C.

On to `COC(=O)c1cccc(-c2cc(-c3ccc(C(F)(F)F)cc3)on2)c1` [Example 31, methyl 3-[5-(4-trifluoromethylphenyl)-3-isoxazolyl]benzoate], for which the melting point was 139 to 140 °C.

`CCOC(=O)c1ccc(-c2ccc(-c3ccc(C(F)(F)F)cc3)n2C)cc1` [Example 3, ethyl 4-[1-methyl-5-(4-trifluoromethylphenyl)-2-pyrrolyl]benzoate] showed a melting point of 150 to 151 °C.

The molecule `COC(=O)c1ccc(-c2cc(-c3ccc(Cl)cc3)no2)cc1` [Example 18, methyl 4-[3-(4-chlorophenyl)-5-isoxazolyl]benzoate] displayed a melting point of 225 to 226 °C.
